For this series, the system named is human EPAS1 (Hif2α) cDNA in psiCHECK2 (Renilla luciferase/EPAS1 fusion mRNA) in Hep3B cells. Put plainly: Efficacy screen of Hif2α RNAi triggers in vitro, dual-luciferase reporter assay (1 nM and 0.1 nM). Conditions: Hep3B cells co-transfected with EPAS1-psiCHECK2, Renilla luciferase normalized to firefly luciferase. The class given is cell-based. In short, it runs like this: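 Hep3B cells (10,000/well) co-transfected with chemically modified siRNA triggers at 1 nM and 0.1 nM plus 25 ng EPAS1-psiCHECK2 plasmid via LipoFectamine 2000. Knockdown measured as Renilla luciferase from the EPAS1 fusion mRNA, normalized to constitutive firefly luciferase by dual-luciferase assay.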

Strand notation (5' to 3'): a small letter for the sugar, then the base; units joined by * are phosphorothioate-linked, units joined directly phosphodiester-linked; [ ] holds rarer units or linkages, { } end groups; capitals alone tell only the bases. d = 2'-deoxy (DNA); m = 2'-O-methyl; f = 2'-fluoro

As to “2302 (sense fCmUfUmUfGmAfUmGfCmCfGmGfAmAfGmCfAmAfAdT; antisense dTfUmUfGmCfUmUfCmCfGmGfCmAfUmCfAmAfAmGdT*dT; siRNA) [compound 2302]”, the “Relative Rluc-Hif2α” value (0.1 nM RNAi trigger) was determined as 0.414 ± 0.019 and the “Relative Rluc-Hif2α” value (1 nM RNAi trigger) came to 0.147 ± 0.028.
The like results for “2287 (sense fCmUfAmCfAmAfCmCfCmUfCmGfCmAfAmCfCmUfAdT; antisense dTfAmGfGmUfUmGfCmGfAmGfGmGfUmUfGmUfAmGdT*dT; siRNA) [compound 2287]” were, in that order, 0.871 ± 0.102 and 0.751 ± 0.011.
Turning to “2391 (sense fAmGfAmAfAmUfUmCfCmUfUmAfGmUfCmAfUmGfAdT; antisense dTfCmAfUmGfAmCfUmAfAmGfGmAfAmUfUmUfCmUdT*dT; siRNA) [compound 2391]”, the “Relative Rluc-Hif2α” value by setting is: (0.1 nM RNAi trigger) 0.273 ± 0.006; (1 nM RNAi trigger) 0.129 ± 0.015.
Take “2241 (sense fAmAfAmAfGmGfAmGfUmAfGmCfUmCfGmGfAmGfAdT; antisense dTfCmUfCmCfGmAfGmCfUmAfCmUfCmCfUmUfUmUdT*dT; siRNA) [compound 2241]”: the “Relative Rluc-Hif2α” value (0.1 nM RNAi trigger) is 0.385 ± 0.028 and the “Relative Rluc-Hif2α” value (1 nM RNAi trigger) was found to be 0.270 ± 0.068.
With “2339 (sense fGmGfGmUfCmAfAmCfUmCfCmAfAmCfGmUfAmUfAdT; antisense dTfAmUfAmCfGmUfUmGfGmAfGmUfUmGfAmCfCmCdT*dT; siRNA) [compound 2339]”, the “Relative Rluc-Hif2α” value is, setting by setting: (0.1 nM RNAi trigger) 0.523 ± 0.134; (1 nM RNAi trigger) 0.189 ± 0.028.
The like results for “2277 (sense fUmAfAmGfUmGfGmCfCmAfGmUfAmCfCmGfGmAfAdT; antisense dTfUmCfCmGfGmUfAmCfUmGfGmCfCmAfCmUfUmAdT*dT; siRNA) [compound 2277]” were, in that order, 0.625 ± 0.384 and 0.702 ± 0.091.
For “2330 (sense fGmAfUmAfUmGfAmCfUmGfUmGfAmGfGmUfGmAfAdT; antisense dTfUmCfAmCfCmUfCmAfCmAfGmUfCmAfUmAfUmCdT*dT; siRNA) [compound 2330]”, in that order: 1.097 ± 0.416 and 0.464 ± 0.035.
With “2416 (sense fUmUfGmAfCmAfCmUfGmGfUmAfUmCfUmUfAmUfAdT; antisense dTfAmUfAmAfGmAfUmAfCmCfAmGfUmGfUmCfAmAdT*dT; siRNA) [compound 2416]”, the “Relative Rluc-Hif2α” value was found to be 0.247 ± 0.031 (0.1 nM RNAi trigger) and 0.166 ± 0.031 (1 nM RNAi trigger).
For “2333 (sense fGmGfAmCfUmUfAmCfCmUfGmGfCmAfGmAfCmUfAdT; antisense dTfAmGfUmCfUmGfCmCfAmGfGmUfAmAfGmUfCmCdT*dT; siRNA) [compound 2333]”, in that order: 0.684 ± 0.147 and 0.291 ± 0.019.
For “2393 (sense fUmAfAmGfGmGfCmAfUmUfUmUfAmCfCmCfUmUfAdT; antisense dTfAmAfGmGfGmUfAmAfAmAfUmGfCmCfCmUfUmAdT*dT; siRNA) [compound 2393]”, in that order: 0.862 ± 0.388 and 1.049 ± 0.089.
For “2294 (sense fGmCfUmCfCmAfCmGfCmCfCmAfAmUfAmGfCmCfAdT; antisense dTfGmGfCmUfAmUfUmGfGmGfCmGfUmGfGmAfGmCdT*dT; siRNA) [compound 2294]”, in that order: 0.743 ± 0.100 and 0.546 ± 0.033.
Take “2332 (sense fUmAfCmAfAmGfAmUfGmGfAmCfUmUfAmCfCmUfAdT; antisense dTfAmGfGmUfAmAfGmUfCmCfAmUfCmUfUmGfUmAdT*dT; siRNA) [compound 2332]”: the “Relative Rluc-Hif2α” value is, setting by setting: (0.1 nM RNAi trigger) 1.174 ± 0.027; (1 nM RNAi trigger) 0.871 ± 0.235.
Consider “2300 (sense fCmUfGmUfAmGfCmCfCmCfGmCfAmCfAmGfUmCfAdT; antisense dTfGmAfCmUfGmUfGmCfGmGfGmGfCmUfAmCfAmGdT*dT; siRNA) [compound 2300]”, for which the “Relative Rluc-Hif2α” value is reported as 1.090 ± 0.106 (0.1 nM RNAi trigger) and 0.786 ± 0.181 (1 nM RNAi trigger).

The record behind these values is patent US9976141B2, “Compositions and methods for inhibiting gene expression of Hif2alpha” (Arrowhead Madison Inc., priority 2015, dated 2018).
